Experimental data reported in patent publication US20250195855A1, “INGESTIBLE DEVICE FOR DELIVERY OF THERAPEUTIC AGENT TO THE GASTROINTESTINAL TRACT” (BIORA THERAPEUTICS, INC., priority 2022, published 2025).

Key:
[1] = design: species or system female Yucatan swine; conditions: in vivo
Description: The above externally-triggered study was also performed using semaglutide, a glucagon-like-peptide-1 (GLP-1) receptor agonist that stimulates insulin secretion and suppress glucagon release. Devices filled with ˜0.96 mg of semaglutide were administrated by intraduodenal (ID) endoscopic placement and were externally triggered in the proximal small intestine of the female Yucatan swine. Plasma samples were then collected from 0 to 240 hours post-dose. Systemic concentrations of semaglutide were measured using LC-MS-MS to evaluate the PK of semaglutide with the OBDS device via ID administration (animals 1003-ID; 1004-ID; 1005-ID; 1009-ID; 10053-ID and 1055-ID in FIG. 87) compared with the IV control (animal 1015-IV in FIG. 87).
Seven out of eight (7/8) devices were successfully advanced through the pyloric sphincter via endoscopic placement and triggered in the proximal small intestine.

[2] = 40 mg bi-weekly dose; cited from earlier work

| Compound | clinical signs before or after dosing [1] | detectable drug levels up to (post-dosing) [1] | bioavailability, subcutaneous route over IV, estimated in human trials [2] |
| --- | --- | --- | --- |
| CC[C@H](C)[C@H](NC(=O)[C@H](Cc1ccccc1)NC(=O)[C@H](CCC(=O)O)NC(=O)[C@H](CCCCNC(=O)COCCOCCNC(=O)COCCOCCNC(=O)CC[C@H](NC(=O)CCCCCCCCCCCCCCCCC(=O)O)C(=O)O)NC(=O)[C@H](C)NC(=O)[C@H](C)NC(=O)[C@H](CCC(N)=O)NC(=O)CNC(=O)[C@H](CCC(=O)O)NC(=O)[C@H](CC(C)C)NC(=O)[C@H](Cc1ccc(O)cc1)NC(=O)[C@H](CO)NC(=O)[C@H](CO)NC(=O)[C@@H](NC(=O)[C@H](CC(=O)O)NC(=O)[C@H](CO)NC(=O)[C@@H](NC(=O)[C@H](Cc1ccccc1)NC(=O)[C@@H](NC(=O)CNC(=O)[C@H](CCC(=O)O)NC(=O)C(C)(C)NC(=O)[C@@H](N)Cc1cnc[nH]1)[C@@H](C)O)[C@@H](C)O)C(C)C)C(=O)N[C@@H](C)C(=O)N[C@@H](Cc1c[nH]c2ccccc12)C(=O)N[C@@H](CC(C)C)C(=O)N[C@H](C(=O)N[C@@H](CCCNC(=N)N)C(=O)NCC(=O)N[C@@H](CCCNC(=N)N)C(=O)NCC(=O)O)C(C)C [semaglutide] | No significant clinical signs were observed | up to 10 days |  |
| adalimumab |  |  | 64% |
